Ki data for 88 molecules are collected here from the kinase profiling compilation of Christmann-Franck et al. (2016).

Among the targets are CDC7 (human) (UniProt O00311); CDK19 (human) (UniProt Q9BWU1); SGK1 (human) (UniProt O00141); CLK4 (human) (UniProt Q9HAZ1).
Holding throughout (test): Flashplate

SMILES strings stand for the structures.

Sequence of SGK1 (human) (O00141 whole entry, looked up): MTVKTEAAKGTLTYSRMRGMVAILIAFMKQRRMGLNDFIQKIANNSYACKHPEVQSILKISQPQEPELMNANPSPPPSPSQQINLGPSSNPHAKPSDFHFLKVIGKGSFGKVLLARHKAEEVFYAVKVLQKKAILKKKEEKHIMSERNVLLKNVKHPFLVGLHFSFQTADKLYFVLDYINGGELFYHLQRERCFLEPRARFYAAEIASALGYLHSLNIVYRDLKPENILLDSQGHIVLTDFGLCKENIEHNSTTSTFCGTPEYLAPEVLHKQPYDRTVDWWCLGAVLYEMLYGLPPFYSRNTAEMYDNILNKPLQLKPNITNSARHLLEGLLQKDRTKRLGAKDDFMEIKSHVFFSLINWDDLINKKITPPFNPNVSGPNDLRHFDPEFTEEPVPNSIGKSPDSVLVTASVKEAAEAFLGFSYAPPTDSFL
Sequence of CDC7 (human) (O00311 whole entry, looked up): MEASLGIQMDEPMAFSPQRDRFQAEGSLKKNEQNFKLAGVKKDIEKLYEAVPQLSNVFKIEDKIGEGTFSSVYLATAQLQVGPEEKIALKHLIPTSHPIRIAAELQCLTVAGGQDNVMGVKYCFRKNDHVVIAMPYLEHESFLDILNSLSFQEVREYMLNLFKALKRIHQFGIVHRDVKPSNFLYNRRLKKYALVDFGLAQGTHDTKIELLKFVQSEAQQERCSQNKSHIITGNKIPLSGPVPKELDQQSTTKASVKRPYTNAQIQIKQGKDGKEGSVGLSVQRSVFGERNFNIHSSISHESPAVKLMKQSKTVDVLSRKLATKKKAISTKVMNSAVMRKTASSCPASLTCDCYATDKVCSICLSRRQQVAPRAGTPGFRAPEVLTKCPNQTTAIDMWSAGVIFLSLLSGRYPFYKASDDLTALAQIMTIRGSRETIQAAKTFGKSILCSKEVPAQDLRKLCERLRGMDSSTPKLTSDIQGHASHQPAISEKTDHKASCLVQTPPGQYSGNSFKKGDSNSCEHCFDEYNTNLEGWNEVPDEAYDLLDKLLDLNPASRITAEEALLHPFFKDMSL
Sequence of CDK19 (human) (Q9BWU1 whole entry, looked up): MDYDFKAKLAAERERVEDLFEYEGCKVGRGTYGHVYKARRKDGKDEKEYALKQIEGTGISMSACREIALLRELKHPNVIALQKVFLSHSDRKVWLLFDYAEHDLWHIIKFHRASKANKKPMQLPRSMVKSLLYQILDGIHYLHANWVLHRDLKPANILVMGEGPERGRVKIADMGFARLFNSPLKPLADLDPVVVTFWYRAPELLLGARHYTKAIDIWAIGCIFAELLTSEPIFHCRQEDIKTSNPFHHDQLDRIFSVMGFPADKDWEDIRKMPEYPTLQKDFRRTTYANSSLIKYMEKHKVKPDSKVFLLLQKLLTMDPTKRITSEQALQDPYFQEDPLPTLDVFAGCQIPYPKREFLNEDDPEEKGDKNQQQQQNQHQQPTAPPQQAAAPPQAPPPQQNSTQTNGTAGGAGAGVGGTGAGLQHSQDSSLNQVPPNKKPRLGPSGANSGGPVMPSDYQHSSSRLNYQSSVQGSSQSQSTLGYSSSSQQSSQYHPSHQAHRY
Sequence of CLK4 (human) (Q9HAZ1 whole entry, looked up): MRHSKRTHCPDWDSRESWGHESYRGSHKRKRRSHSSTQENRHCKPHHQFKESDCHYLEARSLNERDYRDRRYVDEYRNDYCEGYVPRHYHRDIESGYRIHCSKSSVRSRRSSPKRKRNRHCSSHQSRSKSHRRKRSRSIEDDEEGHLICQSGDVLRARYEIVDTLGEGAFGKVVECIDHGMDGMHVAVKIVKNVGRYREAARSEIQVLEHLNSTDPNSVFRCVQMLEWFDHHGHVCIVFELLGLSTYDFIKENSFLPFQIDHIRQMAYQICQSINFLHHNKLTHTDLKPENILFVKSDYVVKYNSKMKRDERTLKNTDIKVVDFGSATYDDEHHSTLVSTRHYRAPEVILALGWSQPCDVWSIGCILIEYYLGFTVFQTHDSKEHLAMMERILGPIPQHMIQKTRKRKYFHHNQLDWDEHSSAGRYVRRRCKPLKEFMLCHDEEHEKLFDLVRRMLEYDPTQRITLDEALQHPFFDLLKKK

In the case of `O=[N+]([O-])c1ccc(-n2nc(-c3ccncc3)cc2O)cc1`, the inhibition constant (Ki) (usually a measure of affinity in units of concentration, obtained from inhibition or displacement) on CDC7 (human) was 0.501 µM; at CDK19 (human), more than 100 µM.

`CN(C)c1ccc(-c2c(-c3ccc4[nH]nc(N)c4c3)nnn2Cc2ccccc2)cc1`: the Ki at CDC7 (human) is 0.000398 µM. For the molecule `Cc1cccc(NC(=O)Nc2ccc(-c3cccc4c3CNC4=O)cc2)c1`, the Ki at SGK1 (human) was more than 10 µM. Still for that read-out and setting: as for `Clc1cc(-c2c[nH]c3ncccc23)nc(NC2CCCCC2)n1`, the figure is 0.794 µM; as for `COc1ccc(-c2ccc(NC(=O)Nc3cc(F)cc(F)c3)cc2)c2c(N)noc12`, more than 10 µM.

Consider `N[C@@H]1[C@H]2CN(c3nc4c(cc3F)c(=O)c(C(=O)O)cn4-c3ccc(F)cc3F)C[C@@H]12`, for which the Ki on SGK1 (human) is more than 10 µM. Still for that read-out and setting: as for `COc1cccc(C(CN)NC(=O)c2ccc(-c3ccncc3)cc2)c1` (stereo not given), the figure is 0.251 µM; as for `COc1ccc(NC(=O)Nc2ccc(-c3csc4c(-c5cnn(CCO)c5)cnc(N)c34)cc2)cc1`, more than 10 µM; as for `O=C(O)c1ccccc1Nc1ccnc(Nc2cccc(O)c2)n1`, 0.794 µM. On to `Oc1cc(Cc2nc3ccccc3[nH]2)nn1-c1ccccc1`, for which the figures for the Ki on CLK4 (human) and on CDK19 (human) were 1.26 µM and more than 100 µM, respectively. `Cc1cccc(NC(=O)Nc2ccc(-c3cccc4c3CNC4=O)cc2C)c1` registered a Ki at SGK1 (human) of more than 10 µM. For the molecule `CSc1nn(-c2ccccn2)c(N)c1C(N)=O`, the Ki at SGK1 (human) was 6.31 µM. Still for that read-out and setting: to `CCOc1nc(C(=O)NCc2ccccc2S(N)(=O)=O)cc(N)c1Cl` belongs more than 10 µM; to `COc1cc(-c2ccc3c(c2)Nc2ccc(CCOc4ccc(N5CCOCC5)cc4)cc2NC3=O)ccc1OCC(O)CO` (stereo not given), more than 10 µM; to `NCCOc1cccc(Nc2ccnc(N)n2)c1`, more than 10 µM. Same read-out and setting: as for `Cc1n[nH]c2ccc(-c3cncc(OC[C@@H](N)Cc4cccc(Cl)c4)c3)cc12`, the figure is 0.158 µM; as for `Cc1nccn2c(-c3ccnc(NCC4(O)CC4)n3)c(-c3ccc(F)cc3F)nc12`, more than 10 µM; as for `Cc1cccc(NC(=O)Nc2ccc(-c3coc4ncnc(N)c34)cc2)c1`, 2 µM. In turn, `CCOC(=O)C1=C(N)n2c(s/c(=C\c3cccs3)c2=O)=C(C(N)=O)C1c1cccs1` (stereo not given) showed a Ki on SGK1 (human) of more than 10 µM. Still for that read-out and setting: as for `COc1cccc([C@@H](C)NC(=O)c2ccc(-c3ccncc3C)cc2)c1`, the figure is 0.2 µM; as for `Nc1ncnc2scc(-c3ccc(NC(=O)Nc4ccccc4)cc3)c12`, 3.98 µM.

Molecule `Cc1cccc(NC(=O)Nc2ccc(-c3csc4c(C#CCCCCCCCCN)cnc(N)c34)cc2)c1` displayed a Ki at SGK1 (human) of 2 µM. Still for that read-out and setting: to `O=C(O)c1ccccc1Nc1ccnc(Nc2ccc3cn[nH]c3c2)n1` belongs 0.2 µM; to `CC(C)Nc1c(-c2ccc3[nH]ncc3c2)nc2ncccn12`, 1.26 µM. With `NCCCNS(=O)(=O)c1cccc(C(=O)Nc2ccc(-c3n[nH]c(=O)c4ccccc34)cc2)c1`, at SGK1 (human), the Ki is more than 10 µM. In turn, `NC(=O)Cn1cc(-c2cc(-c3cc4ccccc4s3)c3[nH]ncc3c2)c2nc(N)ncc21` gave a Ki on SGK1 (human) of more than 10 µM.

With `Cc1cc(O)ccc1-n1cc(C(N)=O)c(=O)c2ccc(-c3ccncc3)cc21`, the Ki at SGK1 (human) was more than 10 µM. Still for that read-out and setting: to `Cc1ccc(CNc2c(Nc3ccncc3)c(=O)c2=O)cc1C` belongs more than 10 µM.

`CCCC(=O)Nc1n[nH]c2ccc(-c3cn(Cc4ccccc4)nn3)cc12` had a Ki at SGK1 (human) of 1 µM. At SGK1 (human), `CCOc1ccc(NC(=O)Nc2ccc(-c3csc4c(-c5cnn(C)c5)cnc(N)c34)cc2)cc1` showed an inhibition constant (Ki) of more than 10 µM. Consider `NC(=O)c1cc2c(-c3ccc(Br)c(F)c3F)cncc2s1`, for which the inhibition constant (Ki) at SGK1 (human) stood at 0.398 µM. This counts as sub-micromolar. `Cc1cccc(NC(=O)Nc2ccc(-c3csc4c(-c5cn[nH]c5)cnc(N)c34)cc2)c1` gave a Ki at SGK1 (human) of more than 10 µM.

Consider `NCCNS(=O)(=O)c1cccc(C(=O)Nc2ccc(-c3n[nH]c(=O)c4ccccc34)cc2)c1`, for which the inhibition constant Ki at SGK1 (human) was more than 10 µM. In turn, `COc1cccc([C@H](C)NC(=O)c2ccc(-c3ccncc3)c(C)c2)c1` gave an inhibitory constant (Ki) on SGK1 (human) of 0.316 µM. On SGK1 (human), `N[C@H](COc1cncc(-c2cc3ccncc3s2)c1)Cc1c[nH]c2ccccc12` yielded a Ki of 0.0501 µM.

Molecule `CCN(CC)CCNC(=O)/C=C/c1cnc(N)c2c(-c3ccc(NC(=O)Nc4cccc(C)c4)cc3)csc12` came in with a Ki on SGK1 (human) of 2 µM. Regarding `c1ccc(CNc2nc(-c3ccc4[nH]ncc4c3)cs2)cc1`, the Ki at SGK1 (human) was more than 6.31 µM. With `CN(C)CC(=O)Nc1n[nH]c2ccc(-c3cn(Cc4ccccc4)nn3)cc12`, the inhibitory constant (Ki) on SGK1 (human) was found to be 2 µM.

Regarding `O=C1NCc2c1cccc2-c1ccc(Nc2nc3ccccc3[nH]2)cc1`, the inhibitory constant (Ki) at SGK1 (human) turned out to be 5.01 µM. Regarding `Cc1ccc(NC(=O)Nc2ccc(-c3csc4ncnc(N)c34)cc2)cc1C`, the Ki on SGK1 (human) was more than 10 µM. `CC(C)(O)c1nnc2ccc(-c3c(-c4ccc(F)cc4F)nc4n3CCC4)nn12` had a Ki on SGK1 (human) of more than 10 µM.

On SGK1 (human), `O=c1[nH]c2sccc2c2nc(-c3ccncc3)nn12` yielded a Ki of more than 10 µM. Same read-out and setting: as for `CSc1cnc2c(ccc3cnccc32)c1O`, the figure is 0.158 µM; as for `CCCS(=O)(=O)Nc1ccc(-c2ccc3[nH]nc(N)c3c2)cc1`, 0.316 µM; as for `COC(=O)c1ccccc1-c1ccc2c(c1)Nc1ccccc1NC2=O`, more than 10 µM. In turn, `COCCn1cc(-c2ccncn2)c(-c2ccc(Cl)cc2)n1` gave a Ki at SGK1 (human) of more than 10 µM.

`COc1ccc2c(c1)/C(=C/c1cnc[nH]1)C(O)=N2` registered a Ki at SGK1 (human) of 1 µM.

With `CCOc1nc(C(=O)NCc2ccc(S(C)(=O)=O)cc2)cc(N)c1C#N`, at SGK1 (human), the Ki is more than 6.31 µM. `CN1CCC[C@H]1COc1cncc(CCc2ccccc2)c1`: the Ki on SGK1 (human) was more than 10 µM. In the case of `CNc1ncnc2c1N=C(c1ccc(NC(=O)Nc3cccc(C(F)(F)F)c3)cc1)CCN2`, the Ki on SGK1 (human) is more than 10 µM. The same measure, in the same setting: to `CC(=O)Nc1cccc(CNc2c(Nc3ccc4[nH]ncc4c3)c(=O)c2=O)c1` belongs 0.158 µM; to `Nc1nonc1-n1nnc(C(=O)N/N=C/c2ccncc2)c1-c1ccccc1`, more than 10 µM.

`O=C(Nc1cccc(C(F)(F)F)n1)Nc1ccnc2c(Cl)c(Cl)ccc12` had a Ki on SGK1 (human) of more than 10 µM. Still for that read-out and setting: as for `Nc1nonc1-n1nnc(C(=O)N/N=C/c2cccs2)c1-c1ccccc1`, the figure is more than 10 µM; as for `Nc1ccc(-c2cncc(OC[C@@H](N)Cc3c[nH]c4ccccc34)c2)cc1C(=O)c1ccccc1`, more than 10 µM. Still for that read-out and setting: as for `CC(=O)N1CCN(C2CCC(n3nc(-c4ccc(NC(=O)c5cc6ccccc6n5C)cc4)c4c(N)ncnc43)CC2)CC1` (stereo not given), the figure is more than 10 µM. In the case of `COc1ccc(/C=C2/S/C(=N/c3ccccc3)NC2=O)cc1O`, the Ki at SGK1 (human) worked out at 5.01 µM. On the same count and under the same terms, to `O=c1ncn2nc(Sc3ccc(F)cc3F)ccc2c1-c1c(Cl)cccc1Cl` belongs more than 7.94 µM; to `Cc1cccc(NC(=O)Nc2ccc(-c3csc4c(C#CCN5CCOCC5)cnc(N)c34)cc2)c1`, 6.31 µM; to `COC(=O)c1c(-c2ccc(NC(=O)Nc3ccccc3)cc2)c2c(N)ncnn2c1C`, 0.631 µM. `O=C(NCc1ccc(Br)cc1)Nc1ccc2[nH]ncc2c1` gave a Ki at SGK1 (human) of 1 µM.

The molecule `O=C1Cc2c([nH]c3ccc([N+](=O)[O-])cc23)-c2ccccc2N1` displayed a Ki on SGK1 (human) of more than 10 µM. `O=c1[nH]c2sc3c(c2c2nc(-c4ccncc4)nn12)CCCC3` returned a Ki on SGK1 (human) of more than 10 µM.

`Cc1ccc(Cn2cc(-c3ccc4[nH]ncc4c3)nn2)c(C)c1`: the Ki on SGK1 (human) was determined as 3.16 µM. Same read-out and setting: as for `O=C1NCCc2[nH]c(-c3ccncc3)cc21`, the figure is 5.01 µM; as for `O=c1c(NCc2cccc(C(F)(F)F)c2)c(Nc2ccncc2)c1=O`, 2 µM; as for `O=C(Nc1cnccn1)Nc1ccnc2cc(C(F)(F)F)ccc12`, 1 µM. Still for that read-out and setting: to `CCN(CC)CCCNc1cccc(-c2nc3c(C(N)=O)cccc3[nH]2)n1` belongs more than 10 µM; to `Oc1cccc(-c2nc(N3CCOCC3)c3oc4ncccc4c3n2)c1`, more than 7.94 µM. With `Clc1cc(-c2c[nH]c3ncccc23)cc(NCc2ccccc2)n1`, on SGK1 (human), the inhibition constant Ki was 0.398 µM. The same measure, in the same setting: as for `Nc1ccc(-c2cncc(OC[C@@H](N)Cc3c[nH]c4ccccc34)c2)cc1C(=O)c1cccc(Cl)c1`, the figure is more than 10 µM; as for `O=C(NCc1ccc(Cl)c(Cl)c1)Nc1ccc2[nH]ncc2c1`, 0.501 µM; as for `O=C(NCCCCCCNC(=O)Nc1cccnc1)Nc1cccnc1`, more than 10 µM. In the case of `N[C@H](COc1cncc(-c2ccc3c(c2)CC(=O)N3)c1)Cc1c[nH]c2ccccc12`, the inhibitory constant (Ki) at SGK1 (human) was determined as 1.26 µM. That is a single-digit micromolar value. `CNC(=O)c1cnc(N)c2c(-c3ccc(NC(=O)Nc4cccc(Cl)c4)cc3)csc12` came in with an inhibition constant Ki on SGK1 (human) of 3.16 µM. Still for that read-out and setting: to `CCn1c(-c2nonc2N)nc2cnc(Oc3cccc(NC(=O)c4ccc(OCCN5CCOCC5)cc4)c3)cc21` belongs 0.2 µM.

Consider `CCn1c(C)c(-c2ccnc(Nc3cccc(OC)c3)n2)sc1=O`, for which the Ki at SGK1 (human) was 0.316 µM. In turn, `N[C@H](COc1cc(/C=C/c2ccncc2)cnc1Cl)Cc1c[nH]c2ccccc12` yielded a Ki on SGK1 (human) of more than 10 µM. Still for that read-out and setting: as for `CC(=O)Nc1cc(N)c(C#N)c(-c2ccc3ccccc3c2)n1`, the figure is more than 10 µM; as for `CN1CCN(CCCNc2cccc(-c3nc4c(C(N)=O)cccc4[nH]3)n2)CC1`, more than 10 µM; as for `CN(C)c1ccc(CNC(=O)c2cc3c(-c4ccccc4)n[nH]c3s2)cc1`, 7.94 µM.

Take `Nc1ncc(-c2ccncc2)c2scc(-c3ccc(NC(=O)Nc4cc(C(F)(F)F)ccc4F)cc3)c12`: at SGK1 (human), the inhibition constant Ki was 0.631 µM. Still for that read-out and setting: as for `CS(=O)(=O)NCCOc1cncc(-c2ccc3cnccc3c2)c1`, the figure is 3.98 µM. `CNC1CCN(c2nc3[nH]cc(C(=O)O)c(=O)c3c(C)c2Br)C1` (stereo not given) yielded a Ki on SGK1 (human) of more than 10 µM. `COc1ccc(-c2cnc3c(Br)cnn3c2)cc1` displayed a Ki at SGK1 (human) of 3.16 µM. Regarding `C[C@@H](Nc1nccc(-c2c(-c3ccc(F)cc3)nc3occn23)n1)c1ccccc1`, on SGK1 (human), the Ki was more than 10 µM. Same read-out and setting: as for `COc1ccc(C(=O)Nc2nc3ccc(Cl)cc3s2)c(OC)c1`, the figure is more than 10 µM. On SGK1 (human), `NS(=O)(=O)c1cccc(Nc2ncc3ccn(-c4ccccc4)c3n2)c1` showed a Ki of 1.26 µM.
